Here are results for 14 compounds from patent publication US6610715B1, “Cathecol hydrazone derivatives, process for preparing the same and pharmaceutical composition containing the same” (Cheil Jedang Corporation, priority 2001, dated 2003).

Molecules are shown by their SMILES.

In the test the test system is Phosphodiesterase IV partially purified from human U937 cells. The test can be described thus: Inhibition of Phosphodiesterase IV Activity ([3H]cAMP hydrolysis, scintillation counting). Type of test: biochemical. Conditions: 1.0 uM cAMP, 30° C., 20 minutes. The method, then:
Compounds prepared by Examples 1 through 16 and Rolipram as control were tested on the inhibition of phosphodiesterase IV.
Phosphodiesterase IV partially purified from human U937 cells, test compound and 1.0 uM cAMP including 0.01 uM[^3H]cAMP were incubated at 30° C. for 20 minutes. The PDE reaction to convert cAMP into AMP was […] by boiling the reaction solution for 2 minutes. AMP was converted into adenosine by adding snake venom nucleotidase and incubating the reaction solution at 30° C. for 10 minutes. While unhydrolyzed cAMPs were bonded to AG1-X2 resin, the [^3H]adenosine in the aqueous solution was quantified by scintillation counting. The results are shown in Table I below, in which the values indicate inhibition (%) of the PDE IV by each test compound.

Setting [1] is: test compound concentration 2 uM.
Setting [2] is: test compound concentration 20 uM.

With `COc1ccc(/C=N/NC(=O)c2ccncc2)cc1OC1CCCC1` [EXAMPLE 1, (E)-3-cyclopentyloxy-4-methoxybenzaldehyde isonicotinic hydrazone], the “Inhibition (%) of the PDE IV” value is given as 38.4% under setting [1] and 66.7% under setting [2].

For the compound `CCOC(=O)N/N=C/c1ccc(OC)c(OC2CCCC2)c1` [EXAMPLE 2, (E)-ethyl[(3-cyclopentyloxy-4-methoxyphenyl)methylene]hydrazinoformate], the “Inhibition (%) of the PDE IV” value runs as follows: under setting [1], 46.7%; under setting [2], 63.7%.

Consider `COc1ccc(/C=N/Nc2ccccc2)cc1OC1CCCC1` [EXAMPLE 3, (E)-3-cyclopentyloxy-4-methoxybenzaldehyde phenylhydrazone], for which the “Inhibition (%) of the PDE IV” value under setting [1] is 46.6% and the “Inhibition (%) of the PDE IV” value under setting [2] is given as 80.4%.

`COc1ccc(/C=N/NC(C)=O)cc1OC1CCCC1` [EXAMPLE 4, (E)-3-cyclopentyloxy-4-methoxybenzaldehyde acetic hydrazone]: the “Inhibition (%) of the PDE IV” value under setting [1] is 51.7% and the “Inhibition (%) of the PDE IV” value under setting [2] is 72.1%.

Take `COc1ccc(/C=N/NC2=NCCN2)cc1OC1CCCC1` [EXAMPLE 6, (E)-3-cyclopentyloxy-4-methoxybenzaldehyde 2-imidazolinohydrazone]: the “Inhibition (%) of the PDE IV” value under setting [1] is listed as 31.7% and the “Inhibition (%) of the PDE IV” value under setting [2] is 58.3%.

In the case of `COc1ccc(/C=N/NC(N)=O)cc1OC1CCCC1` [EXAMPLE 7, (E)-2-[(3-cyclopentyloxy-4-methoxyphenyl)methylene]hydrazinecarboxamide], the “Inhibition (%) of the PDE IV” value runs as follows: under setting [1], 66.2%; under setting [2], 89.7%.

Regarding `COc1ccc(/C=N/NC(N)=S)cc1OC1CCCC1` [EXAMPLE 9, (E)-2-[(3-cyclopentyloxy-4-methoxyphenyl)methylene]hydrazinecarbothioamide], the “Inhibition (%) of the PDE IV” value is, setting by setting: under setting [1], 69.0%; under setting [2], 81.0%.

For the compound `COc1ccc(/C=N/Nc2ccc(Cl)cc2)cc1OC1CCCC1` [EXAMPLE 10, (E)-3-cyclopentyloxy-4-methoxybenzaldehyde 4chlorophenylhydrazone], the “Inhibition (%) of the PDE IV” value under setting [1] is recorded as 39.3% and the “Inhibition (%) of the PDE IV” value under setting [2] is given as 70.7%.

With `COc1ccc(/C=N/NC(=O)C[N+](C)(C)C)cc1OC1CCCC1` [EXAMPLE 11, (E)-2[(3-cyclopentyloxy-4-methoxyphenyl)methylene]hydrazinecarbonylmethyl(trimethyl)ammonium chloride], the “Inhibition (%) of the PDE IV” value is 43.3% under setting [1] and 45.1% under setting [2].

Take `COc1ccc(/C=N/N2CCCCC2)cc1OC1CCCC1` [EXAMPLE 13, (E)-N-piperidino-3-cyclopentyloxy-4-methoxyphenylmethaneimine]: the “Inhibition (%) of the PDE IV” value was 31.4% under setting [1] and 73.3% under setting [2].

`COc1ccc(/C=N/NC(=N)N)cc1OC1CCCC1` [EXAMPLE 14, (E)-2-[(3-cyclopentyloxy-4-methoxyphenyl)methylene]hydrazinecarboximidamide]: the “Inhibition (%) of the PDE IV” value under setting [1] was 14.7% and the “Inhibition (%) of the PDE IV” value under setting [2] is reported as 57.7%.

Consider `COc1ccc(/C=N/Nc2ccccn2)cc1OC1CCCC1` [EXAMPLE 15, (E)-3-cyclopentyloxy-4-methoxybenzaldehyde 2-pyridinylhydrazone], for which the “Inhibition (%) of the PDE IV” value under setting [1] came to 49.4% and the “Inhibition (%) of the PDE IV” value under setting [2] is listed as 63.6%.

For the compound `COc1ccc(/C=N/Nc2ccccc2C(=O)O)cc1OC1CCCC1` [EXAMPLE 16, (E)-3-cyclopentyloxy-4-methoxybenzaldehyde 2-carboxyphenylhydrazone], the “Inhibition (%) of the PDE IV” value was 42.3% under setting [1] and 76.6% under setting [2].

Take `COc1ccc(C2CNC(=O)C2)cc1OC1CCCC1` (stereo not shown) [Rolipram, reference compound]: the “Inhibition (%) of the PDE IV” value by setting is: under setting [1], 62.5%; under setting [2], 70.1%.
